Among the data in ChEMBL document CHEMBL1201862, “PubChem BioAssay data set” (2004) are IC50, EC50 and AC50 values, retold here.

One experiment deals with Genome polyprotein (dengue virus type 2, UniProt P29990). Put plainly: flavivirus cap methylation enzyme inhibition – biochemical, confirmation dose response, primary screen (AID 588689). The format is functional.
In experiment [1] the target is T1, Corticotropin-releasing factor receptor 2/Corticotropin-releasing factor-binding protein (Homo sapiens, UniProt P24387+Q13324).
T1 sequence (Q13324 whole entry): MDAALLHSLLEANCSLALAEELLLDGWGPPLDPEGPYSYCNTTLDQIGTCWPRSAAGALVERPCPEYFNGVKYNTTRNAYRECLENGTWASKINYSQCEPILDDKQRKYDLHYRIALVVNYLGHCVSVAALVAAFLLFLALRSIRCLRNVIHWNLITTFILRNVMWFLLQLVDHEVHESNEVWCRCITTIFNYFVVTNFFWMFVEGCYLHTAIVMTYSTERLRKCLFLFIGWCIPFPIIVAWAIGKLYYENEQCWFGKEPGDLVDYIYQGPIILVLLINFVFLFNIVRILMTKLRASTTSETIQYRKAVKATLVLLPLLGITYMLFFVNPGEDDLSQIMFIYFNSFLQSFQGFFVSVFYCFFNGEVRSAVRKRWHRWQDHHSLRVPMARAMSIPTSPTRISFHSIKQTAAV
T1 sequence (P24387 whole entry): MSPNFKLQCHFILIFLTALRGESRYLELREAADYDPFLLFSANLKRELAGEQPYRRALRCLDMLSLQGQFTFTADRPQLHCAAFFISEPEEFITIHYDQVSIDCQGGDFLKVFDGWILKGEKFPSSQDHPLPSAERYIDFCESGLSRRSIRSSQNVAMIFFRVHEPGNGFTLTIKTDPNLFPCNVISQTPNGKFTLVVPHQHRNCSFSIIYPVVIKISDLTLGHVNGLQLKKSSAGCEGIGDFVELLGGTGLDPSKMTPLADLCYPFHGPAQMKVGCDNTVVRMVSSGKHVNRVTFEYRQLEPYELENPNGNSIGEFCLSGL
The experiment is described as follows: activators of CRF receptor 2 with binding protein – uHTS hits, confirmation (AID 602473). The format is functional. The settings on record: read-out: EC50_Mean.

The target of experiment [2] is T1, Corticotropin-releasing factor receptor 2/Corticotropin-releasing factor-binding protein. The experiment is described as follows: Dose Response confirmation of uHTS hits for small molecule antagonists of the CRF-binding protein and CRF-R2 receptor complex. The format is functional. The settings on record: read-out: IC50_Mean.
The subject of the next experiment is HEK293. The experiment is described as follows: EBV LMP1 TES2 canonical NF-kB signalling blockers – cell-based, HEK293, luciferase, cherry-pick, dose response (AID 588343). To be noted: Homo sapiens. The format is functional.
Experiment [3] addresses T2, Polyadenylate-binding protein 1 (Homo sapiens, UniProt P11940). Put plainly: MLLE domain peptide-binding blockers, IC50 – biochemical, fluorescence polarization, FITC-PAM2 peptide, dose response (AID 602259). The settings on record: read-out: IC50_Mean. Format: functional.
In experiment [4] the target is T2, Polyadenylate-binding protein 1. Put plainly: MLLE binding blockers, Cy5 peptide tracer – biochemical, fluorescence polarization, Cy5-PAM2 peptide, secondary, miRNA deadenylation inhibitor project, dose response (AID 602260). Format: functional. The settings on record: read-out: IC50_Mean. (In general: In fluorescence polarisation assays a small probe gives low polarisation when free and higher when bound to something large.)

Experiment [5] is described as follows: reduction of Shn3 3'UTR-driven luciferase in osteoblasts – cell-based, Clone20 osteoblasts, firefly luciferase, cherry-picked, dose response (AID 624132).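 Also: firefly luciferase luminescence from reporter carrying the Shn3 3'UTR in osteoblasts.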 Format: functional.
Experiment [6] is described as follows: cells. The format is functional, cell-based.
Experiment [7] can be described thus: fluconazole-exposed Candida albicans growth modulators – fluorescence, retest, confirmation (AID 2467). Format: functional, cell-based.
Experiment [8] is described as follows: alpha-synuclein stem-loop luciferase translation blockers – H4 neuroglioma cells, luminescence, confirmation (AID 1988). The format is functional, cell-based.
For experiment [9], the system named is Streptococcus sp. 'group A'. The experiment is described as follows: Streptococcus pyogenes SK(-)GAS viability under kanamycin – luminescence, BacTiterGlo, confirmation, counter-screen for streptokinase expression inhibitor project, dose response (AID 1900). Format: functional, organism-based. On the technique in general: A counterscreen serves to expose hits that act by an unwanted route or on another target.

Another experiment relates to Streptococcus. The experiment is described as follows: GAS UMAA2166 growth inhibition – luminescence, BacTiterGlo, counter-screen for streptokinase expression inhibitor project, dose response (AID 1915).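 Also: potency for reduction of bacterial viability or growth.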 Format: functional, organism-based.
A short description of experiment [10]: Luminescence Cell-Based Dose Response HTS to Identify Inhibitors of 5'UTR Stem-Loop Driven Prion Protein mRNA Translation in H4 Neuroglioblastoma Cells. [Related pubchem assays: 1827 (Project Summary), 1813 (Primary HTS)]. The format is functional.
Experiment [11] can be described thus: NIH-3T3 fibroblast cytotoxicity, dose response, cytotoxicity control, cell-based, fluorescence, Alamar Blue, secondary assay (AID 2327).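 Also: NIH-3T3 mouse fibroblasts cultured with fluconazole at 8 µg/mL.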 The format is functional. Background: Resazurin is reduced to fluorescent resorufin, in cell work by metabolically active cells.
Experiment [12] in a line: cells. The format is functional, cell-based. This is another data set of the same source.
The target of experiment [13] is T3, DNA repair protein RAD52 homolog (Homo sapiens, UniProt P43351).
T3 sequence (P43351 whole entry): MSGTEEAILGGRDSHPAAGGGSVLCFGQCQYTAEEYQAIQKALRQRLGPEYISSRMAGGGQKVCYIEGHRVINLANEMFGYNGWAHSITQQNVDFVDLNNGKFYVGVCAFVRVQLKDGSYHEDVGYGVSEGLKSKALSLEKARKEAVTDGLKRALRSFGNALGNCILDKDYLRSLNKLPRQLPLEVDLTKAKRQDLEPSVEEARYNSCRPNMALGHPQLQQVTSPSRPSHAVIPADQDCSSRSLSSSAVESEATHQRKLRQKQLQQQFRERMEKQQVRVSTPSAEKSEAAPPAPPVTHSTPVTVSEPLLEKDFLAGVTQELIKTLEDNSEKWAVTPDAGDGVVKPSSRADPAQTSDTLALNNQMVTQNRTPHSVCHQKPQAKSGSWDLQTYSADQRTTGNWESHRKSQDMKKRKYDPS
Format: functional, biochemical.

Experiment [14] addresses T4, Rac GTPase-activating protein 1 (Homo sapiens, UniProt Q9H0H5).
T4 sequence (Q9H0H5 whole entry): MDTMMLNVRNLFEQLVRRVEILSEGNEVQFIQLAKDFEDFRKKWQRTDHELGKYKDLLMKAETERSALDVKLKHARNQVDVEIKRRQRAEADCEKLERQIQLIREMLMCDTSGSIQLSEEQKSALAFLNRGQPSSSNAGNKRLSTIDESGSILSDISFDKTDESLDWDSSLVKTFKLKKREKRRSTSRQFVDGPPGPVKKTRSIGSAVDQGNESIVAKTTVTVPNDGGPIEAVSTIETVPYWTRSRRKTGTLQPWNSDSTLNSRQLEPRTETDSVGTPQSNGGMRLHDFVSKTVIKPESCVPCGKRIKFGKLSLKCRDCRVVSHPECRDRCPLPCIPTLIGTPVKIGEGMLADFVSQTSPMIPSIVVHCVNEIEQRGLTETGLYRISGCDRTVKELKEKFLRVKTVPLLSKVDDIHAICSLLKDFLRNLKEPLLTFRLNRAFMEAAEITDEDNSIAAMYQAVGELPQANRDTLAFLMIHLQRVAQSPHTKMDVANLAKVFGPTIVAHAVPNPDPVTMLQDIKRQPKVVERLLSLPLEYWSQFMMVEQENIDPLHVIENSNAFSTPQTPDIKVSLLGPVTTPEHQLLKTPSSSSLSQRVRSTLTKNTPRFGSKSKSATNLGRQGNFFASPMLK
Put plainly: blockers of MgcRacGAP-driven Rac1 GTP hydrolysis – biochemical, ADP Hunter fluorescence, primary and confirmatory, confirmation (AID 624330). Format: functional.

The target of experiment [15] is T5, Zinc finger protein mex-5 (Caenorhabditis elegans, UniProt Q9XUB2).
T5 sequence (Q9XUB2 whole entry): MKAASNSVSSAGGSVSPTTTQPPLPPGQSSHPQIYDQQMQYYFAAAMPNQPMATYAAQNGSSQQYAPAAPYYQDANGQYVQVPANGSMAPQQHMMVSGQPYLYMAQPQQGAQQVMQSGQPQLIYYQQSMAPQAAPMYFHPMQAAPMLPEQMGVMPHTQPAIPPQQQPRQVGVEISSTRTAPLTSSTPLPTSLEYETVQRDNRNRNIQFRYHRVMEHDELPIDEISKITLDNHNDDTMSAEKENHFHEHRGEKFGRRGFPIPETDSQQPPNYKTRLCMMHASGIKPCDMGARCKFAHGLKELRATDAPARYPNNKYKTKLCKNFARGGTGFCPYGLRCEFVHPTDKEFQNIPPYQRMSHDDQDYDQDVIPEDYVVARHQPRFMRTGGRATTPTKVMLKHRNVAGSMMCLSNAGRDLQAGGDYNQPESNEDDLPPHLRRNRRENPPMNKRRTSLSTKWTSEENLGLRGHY
The experiment is described as follows: potency of MEX-5 RNA-binding blockers – biochemical, C. elegans, fluorescence polarization, dose response (AID 1960).

In experiment [16] the target is T6, RNA-binding protein pos-1 (Caenorhabditis elegans, UniProt G5EF15).
T6 sequence (G5EF15 whole entry): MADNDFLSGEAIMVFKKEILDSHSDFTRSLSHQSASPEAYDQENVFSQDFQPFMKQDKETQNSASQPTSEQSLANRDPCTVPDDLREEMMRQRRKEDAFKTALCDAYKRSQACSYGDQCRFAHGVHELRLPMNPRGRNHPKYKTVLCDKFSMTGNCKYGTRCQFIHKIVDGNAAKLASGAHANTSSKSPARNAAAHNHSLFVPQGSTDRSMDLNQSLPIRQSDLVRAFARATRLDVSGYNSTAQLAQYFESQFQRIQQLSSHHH
The experiment is described as follows: disruptors of C. elegans POS-1 RNA interaction – biochemical, fluorescence polarization, dose response (AID 1964).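 Also: purified POS-1 fused to maltose binding protein made in E. coli; potency of compounds blocking POS-1 binding to fluorescent RNA.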

The source made the active and inactive calls. Some results are limits rather than exact numbers.

T2 sequence (P11940 whole entry, the tested form may be a part): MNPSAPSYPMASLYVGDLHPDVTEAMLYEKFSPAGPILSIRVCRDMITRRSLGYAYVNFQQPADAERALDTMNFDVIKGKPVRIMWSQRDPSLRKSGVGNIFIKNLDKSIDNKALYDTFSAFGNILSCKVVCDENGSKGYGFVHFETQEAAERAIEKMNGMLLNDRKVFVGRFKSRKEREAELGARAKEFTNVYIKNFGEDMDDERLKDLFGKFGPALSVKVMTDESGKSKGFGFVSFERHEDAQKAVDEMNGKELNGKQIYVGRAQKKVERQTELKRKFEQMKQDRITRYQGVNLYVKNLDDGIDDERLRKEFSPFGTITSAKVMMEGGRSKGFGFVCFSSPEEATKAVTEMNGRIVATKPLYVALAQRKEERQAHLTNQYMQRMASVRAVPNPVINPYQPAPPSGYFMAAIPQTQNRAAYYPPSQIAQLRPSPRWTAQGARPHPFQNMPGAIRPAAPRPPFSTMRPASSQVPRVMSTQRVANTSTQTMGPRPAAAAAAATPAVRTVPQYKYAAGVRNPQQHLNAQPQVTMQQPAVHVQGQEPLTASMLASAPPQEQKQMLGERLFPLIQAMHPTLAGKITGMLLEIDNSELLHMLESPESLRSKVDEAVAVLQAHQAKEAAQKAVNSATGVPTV
Genome polyprotein, sequence (P29990 2492-3391 limits assumed): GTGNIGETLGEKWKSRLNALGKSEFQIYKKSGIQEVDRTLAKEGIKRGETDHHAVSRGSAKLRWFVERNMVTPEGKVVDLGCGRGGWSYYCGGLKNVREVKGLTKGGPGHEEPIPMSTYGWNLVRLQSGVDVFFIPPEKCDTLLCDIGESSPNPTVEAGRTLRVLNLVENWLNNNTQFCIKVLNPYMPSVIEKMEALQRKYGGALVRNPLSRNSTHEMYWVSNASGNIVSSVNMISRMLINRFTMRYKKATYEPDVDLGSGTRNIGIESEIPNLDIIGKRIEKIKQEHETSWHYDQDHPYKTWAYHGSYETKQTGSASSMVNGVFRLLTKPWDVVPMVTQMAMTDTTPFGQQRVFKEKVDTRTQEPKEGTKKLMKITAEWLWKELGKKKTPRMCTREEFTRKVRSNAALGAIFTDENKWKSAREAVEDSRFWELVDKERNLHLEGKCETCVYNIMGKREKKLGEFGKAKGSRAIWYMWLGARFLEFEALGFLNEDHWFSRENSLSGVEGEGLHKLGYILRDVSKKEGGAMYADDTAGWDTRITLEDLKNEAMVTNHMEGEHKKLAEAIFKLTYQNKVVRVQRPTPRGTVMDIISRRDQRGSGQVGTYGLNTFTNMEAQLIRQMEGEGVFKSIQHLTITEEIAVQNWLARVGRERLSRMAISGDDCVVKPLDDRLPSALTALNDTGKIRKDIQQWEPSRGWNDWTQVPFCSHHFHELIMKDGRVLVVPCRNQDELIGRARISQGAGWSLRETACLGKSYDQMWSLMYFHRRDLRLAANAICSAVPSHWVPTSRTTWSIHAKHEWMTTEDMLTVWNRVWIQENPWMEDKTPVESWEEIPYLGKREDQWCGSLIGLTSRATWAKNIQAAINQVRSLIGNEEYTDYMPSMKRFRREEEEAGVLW

For `COC(=O)CSC1=NS(=O)(=O)c2ccccc21`, the IC50 is 23.2 µM (active) at Genome polyprotein and > 47.1 µM (inactive) in experiment [2]. Moreover, the EC50 in [1] was > 53 µM (inactive).

As to `Cc1sc2ncnc(N3CCC(C(=O)Nc4ccccc4C(C)(C)C)CC3)c2c1C`, in the experiment with HEK293, the AC50 was 16.8 µM (active).

As for `Cc1ccc(S(=O)(=O)N2CCCCC2)cc1NC(=S)NC(=O)c1ccco1`, the IC50 in [3] and in experiment [4] was > 66 µM (inactive) in each case.

In the case of `O=C(Cc1ccc(Br)cc1)N1CCN(c2ccccn2)CC1`, the IC50 in [3] and in experiment [4] was > 66 µM (inactive) each time.

`COc1cccc(NC(=O)CN(C)C(=O)CSC(=S)N2CCCC2)c1`: the IC50 in [3] and in experiment [4] was > 66 µM (inactive) in each case.

As to `c1ccc(P(c2ccccn2)c2ccccn2)cc1`, the IC50 in experiment [3] and in [4] was > 66 µM (inactive) throughout.

Consider `O=C(CSc1nc2c(c(=O)n1-c1ccc(Br)cc1)SCC2)NCc1ccco1`, for which the half-maximal activity concentration (AC50) in experiment [5] is 43 µM (active).

Regarding `COc1ccc(C(=O)NC(=S)NCc2cccnc2)cc1[N+](=O)[O-]`, the IC50 in [3] and in experiment [4] was > 66 µM (inactive) each time.

In the case of `Cc1cccc(CN2CCN(Cc3ccc(Cl)cc3)CC2)c1`, in the experiment on HEK293, the AC50 was 53.2 µM (active).

`O=C(/C=C/c1ccco1)Oc1cc(Br)cc(/C=N/NC(=O)c2ccccc2O)c1`: the EC50 in the experiment “cells [6]” was 8.58 µM (active); in experiment [7], 1.49 µM (active); in experiment [8] it was 2.62 µM (active); in [9], 5.69 µM (active); in the experiment with Streptococcus it was 5.62 µM (active); in [10], 7.54 µM (active). In addition, the results for the EC50 (in [11]; in the experiment “cells [12]”) were > 160 µM (inactive) and 15.2 µM (active), respectively. In the experiment with HEK293, the AC50 is 5.21 µM (active).

Regarding `Nc1ccc(Nc2ccncc2)cc1`, in experiment [13], the AC50 was 16.9 µM (active). The IC50 in [14] was 247 µM (active).

Consider `CCc1c(C2CC2)ncn1Cc1cccc(-c2ccccc2)c1`, for which the AC50 in experiment [13] is 24.5 µM (active).

`Cc1cc(N/N=C/c2ccc(O)cc2)c2cccc(C)c2n1`: the AC50 in experiment [13] is 2.56 µM (active).

In the case of `CN(C)c1ccc2nc3ccc(=[N+](C)C)cc-3sc2c1` [METHYLENE BLUE ANHYDROUS], the AC50 in experiment [13] is 0.936 µM (active). Moreover, the EC50 is 114 µM (active) in experiment [15] and 187 µM (active) in [16].

The term AC50 denotes the concentration at which the activity in the assay is half-maximal.
